Data reported in patent publication US8629112B2, “Template-fixed peptidomimetics with CXCR7 modulating activity” (priority 2010, dated 2014).
Square brackets hold non-standard residues; d marks the D form. Peptide text beside a SMILES is read from it. Oic = O=C(O)[C@@H]1C[C@@H]2CCCC[C@@H]2N1; 1Nal = N[C@@H](Cc1cccc2ccccc12)C(=O)O; 2Nal = N[C@@H](Cc1ccc2ccccc2c1)C(=O)O; d1Nal = N[C@H](Cc1cccc2ccccc12)C(=O)O; Tiq1c(1S) = O=C(O)[C@H]1NCCc2ccccc21; His(π-Me) = Cn1cncc1C[C@H](N)C(=O)O; Tic = O=C(O)[C@@H]1Cc2ccccc2CN1; dOrn = NCCC[C@@H](N)C(=O)O; dPip = O=C(O)[C@H]1CCCCN1; Orn = NCCC[C@H](N)C(=O)O; Aze = O=C(O)[C@@H]1CCN1; Abu = CC[C@H](N)C(=O)O

Target: T1, CXCR7 (Homo sapiens, UniProt P25106)
T1 construct: host or cells: CHO (PathHunter CHO-CXCR7 β-arrestin cells)
Assay: CXCR7 β-arrestin recruitment assay (PathHunter CHO-CXCR7, agonistic assay)
Assay type: cell-based
Conditions: CHO CXCR7 β-arrestin cells, agonistic assay, 90 min at 37° C., chemiluminescence; read-out: β-Arrestin EC50
Method: Lyophilized peptides were weighed on a Microbalance (Mettler MX5) and dissolved in DMSO to a final concentration of 10 mM unless otherwise stated. Stock solutions were kept at +4° C., and protected from light.
2.2 CXCR7 β-Arrestin Recruitment Assay
The PathHunter CHO-CXCR7 (DiscoverX) assay was performed according to the manufacturer's protocol. In brief, CHO CXCR7 β-arrestin cells were seeded at a density of 5000 cells per well in 40 μl of F12 medium in a 96-half volume well black culture plate and incubated overnight at 37° C. in a humidified atmosphere with 5% CO2. The next day, serial dilutions of PEM compounds have been prepared in DMSO and subsequently diluted in HBSS buffer containing 0.1% BSA.
For agonistic assay, 10 μl of compound solution or a solution of stromal cell-derived factor-1 (SDF-1) as positive control was added to the cells with a final DMSO concentration of 1% (v/v). The plate was incubated for 90 min at 37° C. in 5% CO2 incubator with gentle shaking (300 rpm) before addition of 40 ul of detection reagent per well. Reaction was developed 90 min at room temperature in the dark with shaking, and chemiluminescence was measured with a Topcount (Perkin Elmer) luminescence counter.

T1 sequence (P25106 whole entry): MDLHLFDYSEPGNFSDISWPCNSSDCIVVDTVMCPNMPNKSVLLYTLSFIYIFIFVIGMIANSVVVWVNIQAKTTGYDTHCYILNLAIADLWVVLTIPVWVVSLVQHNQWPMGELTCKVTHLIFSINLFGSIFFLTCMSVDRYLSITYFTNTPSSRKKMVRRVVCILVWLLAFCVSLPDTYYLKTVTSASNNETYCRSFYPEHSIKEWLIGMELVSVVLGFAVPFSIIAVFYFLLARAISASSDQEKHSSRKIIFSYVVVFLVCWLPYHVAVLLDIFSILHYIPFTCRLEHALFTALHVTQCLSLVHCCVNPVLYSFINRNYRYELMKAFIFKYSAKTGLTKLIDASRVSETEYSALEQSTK

Compound	EC50 [nM]
N=C(N)NCCC[C@@H]1NC(=O)[C@H](Cc2c[nH]c3ccccc23)NC(=O)[C@@H](Cc2ccccc2)NC(=O)[C@H](Cc2cccc3ccccc23)NC(=O)[C@@H]2Cc3ccccc3CN2C(=O)[C@H]2CCCN2C1=O [compound 7, cyclo(-1Nal-^DPhe-Trp-Arg-^DPro-Tic-)] (cyclo([1Nal][dF]WR[dP][Tic]))	61.6 ± 1.6
N=C(N)NCCC[C@@H]1NC(=O)[C@@H]2Cc3ccccc3CN2C(=O)[C@H]2CCCN2C(=O)[C@H](CCCNC(=N)N)NC(=O)[C@H](Cc2c[nH]c3ccccc23)NC(=O)[C@@H](Cc2c[nH]cn2)NC1=O [compound 36, cyclo(-Arg-^DHis-Trp-Arg-^DPro-Tic-)] (cyclo(R[dH]WR[dP][Tic]))	144 ± 136
CC[C@@H]1NC(=O)[C@@H]2Cc3ccccc3CN2C(=O)[C@H]2CCCN2C(=O)[C@H](Cc2c[nH]c3ccccc23)NC(=O)[C@H](CCCNC(=N)N)NC(=O)[C@@H](CCCNC(=N)N)NC1=O [compound 30, cyclo(-Abu-^DArg-Arg-Trp-^DPro-Tic-)] (cyclo([Abu][dR]RW[dP][Tic]))	97.5 ± 6.3
CC[C@H](C)[C@@H]1NC(=O)[C@@H](CCCNC(=N)N)NC(=O)[C@H](Cc2cccc3ccccc23)NC(=O)[C@@H]2CCN2C(=O)[C@H]2CCCN2C(=O)[C@H](CCCNC(=N)N)NC1=O [compound 43, cyclo(-1Nal-^DArg-Ile-Arg-^DPro-Azt-)] (cyclo([1Nal][dR]IR[dP][Aze]))	41.2 ± 8.3
N=C(N)NCCC[C@@H]1NC(=O)[C@H](Cc2c[nH]c3ccccc23)NC(=O)[C@@H](CCCNC(=N)N)NC(=O)[C@H](Cc2cccc3ccccc23)NC(=O)[C@@H]2CCN2C(=O)[C@H]2CCCN2C1=O [compound 44, cyclo(-1Nal-^DArg-Trp-Arg-^DPro-Azt-)] (cyclo([1Nal][dR]WR[dP][Aze]))	146 ± 81.8
N=C(N)NCCC[C@@H]1NC(=O)[C@H](Cc2c[nH]c3ccccc23)NC(=O)[C@@H](CCCN)NC(=O)[C@H](Cc2c[nH]c3ccccc23)NC(=O)[C@@H]2Cc3ccccc3CN2C(=O)[C@H]2CCCN2C1=O [compound 14, cyclo(-Trp-^DOrn-Trp-Arg-^DPro-Tic-)] (cyclo(R[dP][Tic]W[dOrn]W))	111 ± 75.4
C[C@@H]1NC(=O)[C@@H]2Cc3ccccc3CN2C(=O)[C@H]2CCCN2C(=O)[C@H](CCCNC(=N)N)NC(=O)[C@H](Cc2c[nH]c3ccccc23)NC(=O)[C@@H](Cc2ccccc2)NC1=O [Ex. 1, cyclo(-Ala-^DPhe-Trp-Arg-^DPro-Tic-)] (cyclo(A[dF]WR[dP][Tic]))	163 ± 40.9
CC[C@H](C)[C@@H]1NC(=O)[C@@H]2Cc3ccccc3CN2C(=O)[C@H]2CCCN2C(=O)[C@H](CCCNC(=N)N)NC(=O)[C@H](Cc2c[nH]c3ccccc23)NC(=O)[C@@H](Cc2c[nH]cn2)NC1=O [compound 32, cyclo(-Ile-^DHis-Trp-Arg-^DPro-Tic-)] (cyclo(I[dH]WR[dP][Tic]))	70.8 ± 14.3
NCCC[C@@H]1NC(=O)[C@H](Cc2c[nH]c3ccccc23)NC(=O)[C@@H](Cc2ccccc2)NC(=O)[C@H](Cc2c[nH]c3ccccc23)NC(=O)[C@@H]2Cc3ccccc3CN2C(=O)[C@H]2CCCN2C1=O [compound 21, cyclo(-Trp-^DPhe-Trp-Orn-^DPro-Tic-)] (cyclo([Orn][dP][Tic]W[dF]W))	12.1
N=C(N)NCCC[C@@H]1NC(=O)[C@H](Cc2c[nH]c3ccccc23)NC(=O)[C@@H](Cc2ccccc2)NC(=O)[C@H](Cc2c[nH]c3ccccc23)NC(=O)[C@@H]2c3ccccc3CCN2C(=O)[C@H]2CCCN2C1=O [Ex. 25, cyclo(-Trp-^DPhe-Trp-Arg-^DPro-Tiq-)] (cyclo(R[dP][Tiq1c(1S)]W[dF]W))	0.4
N=C(N)NCCC[C@@H]1NC(=O)[C@H](Cc2c[nH]c3ccccc23)NC(=O)[C@@H](Cc2ccccc2)NC(=O)[C@H](Cc2c[nH]cn2)NC(=O)[C@@H]2Cc3ccccc3CN2C(=O)[C@H]2CCCN2C1=O [compound 3, cyclo(-His-^DPhe-Trp-Arg-^DPro-Tic-)] (cyclo(H[dF]WR[dP][Tic]))	32.1 ± 3.9
Cn1cncc1C[C@@H]1NC(=O)[C@@H]2Cc3ccccc3CN2C(=O)[C@H]2CCCN2C(=O)[C@H](CCCNC(=N)N)NC(=O)[C@H](Cc2c[nH]c3ccccc23)NC(=O)[C@@H](Cc2ccccc2)NC1=O [Ex. 4, cyclo(-His(Me)-^DPhe-Trp-Arg-^DPro-Tic-)] (cyclo([His(π-Me)][dF]WR[dP][Tic]))	32.5 ± 3.9
N=C(N)NCCC[C@@H]1NC(=O)[C@H](Cc2ccc(O)cc2)NC(=O)[C@@H](Cc2ccccc2)NC(=O)[C@H](Cc2c[nH]c3ccccc23)NC(=O)[C@@H]2Cc3ccccc3CN2C(=O)[C@H]2CCCN2C1=O [compound 16, cyclo(-Trp-^DPhe-Tyr-Arg-^DPro-Tic-)] (cyclo(R[dP][Tic]W[dF]Y))	326 ± 99.8

Further lines, results first:

EC50 [nM]	Compound
280 ± 115	N=C(N)NCCC[C@@H]1NC(=O)[C@H](Cc2c[nH]c3ccccc23)NC(=O)[C@@H](CCCNC(=N)N)NC(=O)[C@H](Cc2cccc3ccccc23)NC(=O)[C@@H]2Cc3ccccc3CN2C(=O)[C@H]2CCCN2C1=O [compound 28, cyclo(-1Nal-^DArg-Trp-Arg-^DPro-Tic-)] (cyclo([1Nal][dR]WR[dP][Tic]))
8.9 ± 5.8	N=C(N)NCCC[C@@H]1NC(=O)[C@H](Cc2c[nH]c3ccccc23)NC(=O)[C@@H](Cc2ccccc2)NC(=O)[C@H](Cc2ccc3ccccc3c2)NC(=O)[C@@H]2Cc3ccccc3CN2C(=O)[C@H]2CCCN2C1=O [compound 8, cyclo(-2Nal-^DPhe-Trp-Arg-^DPro-Tic-)] (cyclo([2Nal][dF]WR[dP][Tic]))
269 ± 80.1	O=C1N[C@@H](Cc2c[nH]c3ccccc23)C(=O)N2CCC[C@@H]2C(=O)N2Cc3ccccc3C[C@H]2C(=O)N[C@@H](Cc2c[nH]cn2)C(=O)N[C@H](Cc2cccc3ccccc23)C(=O)N[C@H]1Cc1c[nH]cn1 [compound 39, cyclo(-His-^D1Nal-His-Trp-^DPro-Tic-)] (cyclo(HW[dP][Tic]H[d1Nal]))
78.7 ± 0.9	N=C(N)NCCC[C@@H]1NC(=O)[C@H](Cc2c[nH]c3ccccc23)NC(=O)[C@@H](Cc2ccccc2)NC(=O)[C@H](Cc2c[nH]c3ccccc23)NC(=O)[C@@H]2CCCN2C(=O)[C@H]2CCCCN2C1=O [compound 41, cyclo(-Trp-^DPhe-Trp-Arg-^DPip-Pro-)] (cyclo(PW[dF]WR[dPip]))
0.8 ± 0.5	N=C(N)NCCC[C@@H]1NC(=O)[C@H](Cc2c[nH]c3ccccc23)NC(=O)[C@@H](Cc2ccccc2)NC(=O)[C@H](Cc2c[nH]c3ccccc23)NC(=O)[C@@H]2C[C@@H]3CCCC[C@@H]3N2C(=O)[C@H]2CCCN2C1=O [Ex. 26, cyclo(-Trp-^DPhe-Trp-Arg-^DPro-Oic-)] (cyclo([Oic]W[dF]WR[dP]))
34.3 ± 3.6	CC[C@H](C)[C@@H]1NC(=O)[C@@H](CCCNC(=N)N)NC(=O)[C@H]([C@@H](C)CC)NC(=O)[C@@H]2Cc3ccccc3CN2C(=O)[C@H]2CCCN2C(=O)[C@H](CCCNC(=N)N)NC1=O [compound 33, cyclo(-Ile-^DArg-Ile-Arg-^DPro-Tic-)] (cyclo(IR[dP][Tic]I[dR]))
317 ± 360	CC[C@H](C)[C@@H]1NC(=O)[C@@H]2Cc3ccccc3CN2C(=O)[C@H]2CCCN2C(=O)[C@H](CCCNC(=N)N)NC(=O)[C@H](Cc2c[nH]cn2)NC(=O)[C@@H](Cc2c[nH]c3ccccc23)NC1=O [compound 34, cyclo(-Ile-^DTrp-His-Arg-^DPro-Tic-)] (cyclo(HR[dP][Tic]I[dW]))
12.8 ± 4.5	N=C(N)NCCC[C@@H]1NC(=O)[C@@H]2Cc3ccccc3CN2C(=O)[C@H]2CCCN2C(=O)[C@H](CCCNC(=N)N)NC(=O)[C@H](Cc2c[nH]c3ccccc23)NC(=O)[C@@H](Cc2ccccc2)NC1=O [compound 6, cyclo(-Arg-^DPhe-Trp-Arg-^DPro-Tic-)] (cyclo(R[dF]WR[dP][Tic]))
217 ± 12.5	N=C(N)NCCC[C@H]1NC(=O)[C@H](Cc2c[nH]c3ccccc23)NC(=O)[C@@H]2Cc3ccccc3CN2C(=O)[C@H]2CCCN2C(=O)[C@H](Cc2c[nH]c3ccccc23)NC(=O)[C@H](Cc2c[nH]cn2)NC1=O [compound 38, cyclo(-Trp-^DArg-His-Trp-^DPro-Tic-)] (cyclo(HW[dP][Tic]W[dR]))
208 ± 50.2	CC[C@H](C)[C@@H]1NC(=O)[C@H](Cc2c[nH]c3ccccc23)NC(=O)[C@@H](CCCNC(=N)N)NC(=O)[C@H](Cc2c[nH]c3ccccc23)NC(=O)[C@@H]2CCN2C(=O)[C@H]2CCCN2C1=O [compound 46, cyclo(-Trp-^DArg-Trp-Ile-^DPro-Azt-)] (cyclo([Aze]W[dR]WI[dP]))
